Test results: ChEMBL document CHEMBL1201862, “PubChem BioAssay data set” (2004)
Where “and” joins values, the source holds several entries; their conditions need not be identical. Equal values may be shown once.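 Five compound concentrations were applied to cells in 96-well plates for 48 hours; endpoints were derived by simple linear interpolation of the resulting dose-response curve. GI50 is the concentration that inhibits growth by half.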 Calls of active or inactive are those of the source. Rule as the data show it: active = GI50 up to about 1.1 µM and inactive = higher.

How the values were obtained:
Assay in all cases: NCI tumour cell line growth inhibition, 48 h
786-0 = system: 786-0
A498 = system: A498
A549 = system: A549
ACHN = system: ACHN
BT-549 = system: BT-549
CAKI-1 = system: CAKI-1
COLO 205 = system: COLO 205
DU-145 = system: DU-145
EKVX = system: EKVX
HCT-116 = system: HCT-116
HCT-15 = system: HCT-15
HL-60 = system: HL-60
HOP-62 = system: HOP-62
HOP-92 = system: HOP-92
HT-29 = system: HT-29
Hs-578T = system: Hs-578T
IGROV-1 = system: IGROV-1
K562 = system: K562
KM12 = system: KM12
LOX IMVI = system: LOX IMVI
M14 = system: M14
MCF7 = system: MCF7
MDA-MB-435 = system: MDA-MB-435
MDA-N = system: MDA-N
MOLT-4 = system: MOLT-4
Malme-3M = system: Malme-3M
NCI-H23 = system: NCI-H23
NCI-H460 = system: NCI-H460
NCI-H522 = system: NCI-H522
NCI/ADR-RES = system: NCI/ADR-RES
OVCAR-3 = system: OVCAR-3
OVCAR-5 = system: OVCAR-5
OVCAR-8 = system: OVCAR-8
PC-3 = system: PC-3
RPMI-8226 = system: RPMI-8226
RXF 393 = system: RXF 393
SF-268 = system: SF-268
SF-295 = system: SF-295
SF-539 = system: SF-539
SK-MEL-28 = system: SK-MEL-28
SK-MEL-2 = system: SK-MEL-2
SK-MEL-5 = system: SK-MEL-5
SK-OV-3 = system: SK-OV-3
SN12C = system: SN12C
SNB-19 = system: SNB-19
SR = system: SR
SW-620 = system: SW-620
T47D = system: T47D
TK-10 = system: TK-10
U-251 = system: U-251
UACC-257 = system: UACC-257
UACC-62 = system: UACC-62
CCRF-CEM = system: CCRF-CEM
HCC 2998 = system: HCC 2998
MDA-MB-231 = system: MDA-MB-231
NCI-H226 = system: NCI-H226
OVCAR-4 = system: OVCAR-4
SNB-75 = system: SNB-75
UO-31 = system: UO-31

Measured: GI50

O=[N+]([O-])c1ccccc1CSc1nc(O)c2nc[nH]c2n1
inactive: 786-0 > 100 µM | A498 > 100 µM | A549 > 100 µM | ACHN > 100 µM | BT-549 > 100 µM | CAKI-1 90.4 µM | COLO 205 > 100 µM | DU-145 > 100 µM | EKVX 51.8 µM | HCT-116 > 100 µM | HL-60 78.2 µM | HOP-62 > 100 µM | HOP-92 > 100 µM | HT-29 72.6 µM | Hs-578T 52.4 µM | IGROV-1 > 100 µM | K562 > 100 µM | KM12 > 100 µM | LOX IMVI > 100 µM | M14 61.9 µM | MCF7 > 100 µM and > 99.3 µM | MDA-MB-435 > 100 µM and 55 µM | MDA-N > 100 µM | MOLT-4 > 100 µM | Malme-3M > 100 µM | NCI-H23 > 100 µM | NCI-H460 > 100 µM | NCI-H522 > 100 µM and 58.7 µM | NCI/ADR-RES > 100 µM | OVCAR-3 > 100 µM | OVCAR-5 > 100 µM and 92 µM | OVCAR-8 > 100 µM | PC-3 79.8 µM | RPMI-8226 > 100 µM and 89.3 µM | RXF 393 > 100 µM | SF-268 > 100 µM | SF-295 > 100 µM and 99.8 µM | SF-539 > 100 µM | SK-MEL-28 > 100 µM | SK-MEL-2 > 100 µM | SK-MEL-5 > 100 µM | SK-OV-3 63.8 µM | SN12C > 100 µM and 66.4 µM | SNB-19 59.8 µM | SR > 100 µM | SW-620 > 100 µM | T47D > 100 µM and 75.7 µM | TK-10 > 100 µM and 79.8 µM | U-251 > 100 µM and 96.4 µM | UACC-257 81.3 µM | UACC-62 > 100 µM and 88.1 µM
> 100 µM: HCT-15

N#Cc1ccccc1NC(=O)/C(=N\NC(=O)c1ccncc1)C(c1cnc2ccc([N+](=O)[O-])cc2n1)[N+](=O)[O-] (stereo unspecified)
78.3 µM: HCT-15
inactive: 786-0 > 100 µM | A498 > 100 µM | A549 97.9 µM | ACHN 28 µM | BT-549 > 100 µM | CAKI-1 > 100 µM | CCRF-CEM 56.4 µM | EKVX 53.1 µM | HCC 2998 > 100 µM | HCT-116 > 100 µM | HL-60 > 100 µM | HOP-62 > 100 µM | HOP-92 86.9 µM | HT-29 > 100 µM | Hs-578T > 100 µM | IGROV-1 95.9 µM | KM12 39.9 µM | LOX IMVI 84.5 µM | M14 67.6 µM | MCF7 80.2 µM | MDA-MB-231 > 100 µM | MDA-MB-435 74.8 µM | MDA-N > 100 µM | MOLT-4 80 µM | Malme-3M > 100 µM | NCI-H226 > 100 µM | NCI-H23 > 100 µM | NCI-H460 64.6 µM | NCI-H522 33 µM | NCI/ADR-RES > 100 µM | OVCAR-3 > 100 µM | OVCAR-4 > 100 µM | OVCAR-5 > 100 µM | OVCAR-8 > 100 µM | PC-3 > 100 µM | RPMI-8226 49 µM | RXF 393 > 100 µM | SF-268 > 100 µM | SF-295 > 100 µM | SF-539 > 100 µM | SK-MEL-28 > 100 µM | SK-MEL-2 > 100 µM | SK-MEL-5 63.7 µM | SK-OV-3 > 100 µM | SN12C > 100 µM | SNB-75 > 100 µM | SW-620 > 100 µM | T47D > 100 µM | TK-10 > 100 µM | U-251 > 100 µM | UACC-257 > 100 µM | UACC-62 > 100 µM | UO-31 32.1 µM

COc1cc(CNc2nc3cc(C(F)(F)F)ccc3nc2C(=O)O)cc(OC)c1OC
active: HL-60 0.1 µM
29.6 µM: HCT-15
inactive: 786-0 19.3 µM | A498 24.2 µM | A549 21.4 µM | ACHN 26.4 µM | BT-549 29.8 µM | CAKI-1 25.3 µM | COLO 205 22.6 µM | DU-145 33.2 µM | EKVX 20.1 µM | HCC 2998 41.4 µM | HCT-116 15.6 µM | HOP-62 18.5 µM | Hs-578T 10.4 µM | K562 28 µM | KM12 24.7 µM | LOX IMVI 31.4 µM | M14 17.5 µM | MCF7 20.1 µM | MDA-MB-435 23.4 µM | MDA-N 21.5 µM | MOLT-4 20.7 µM | Malme-3M 38.6 µM | NCI-H226 60.7 µM | NCI-H23 33.8 µM | NCI-H460 25.4 µM | NCI-H522 29.2 µM | NCI/ADR-RES 24.4 µM | OVCAR-3 24.3 µM | OVCAR-5 49.3 µM | OVCAR-8 34.4 µM | PC-3 21.5 µM | RXF 393 23.8 µM | SF-268 27.7 µM | SF-295 20.5 µM | SF-539 15.2 µM | SK-MEL-28 22.5 µM | SK-MEL-2 19.9 µM | SK-OV-3 28.4 µM | SN12C 15.4 µM | SNB-19 21.6 µM | SNB-75 19.9 µM | SR 33.3 µM | SW-620 31.6 µM | T47D 21.1 µM | TK-10 13.1 µM | U-251 15.7 µM | UACC-257 21.5 µM | UACC-62 15.5 µM | UO-31 18.6 µM

CCN(CC)CCNc1n[n+]([O-])c2ccccc2[n+]1[O-]
3.92 µM: HCT-15
inactive: 786-0 7.85 µM | ACHN 2.95 µM | BT-549 16.4 µM | CCRF-CEM 3.91 µM | COLO 205 5.96 µM | DU-145 12.1 µM | EKVX 12.7 µM | HCC 2998 2.07 µM | HCT-116 7.73 µM | HL-60 1.85 µM | HOP-62 5.11 µM | HT-29 5.94 µM | Hs-578T 28.6 µM | IGROV-1 1.81 µM | K562 1.72 µM | KM12 9.2 µM | LOX IMVI 9.86 µM | M14 6.7 µM | MDA-MB-435 12.5 µM | MDA-N 9.73 µM | MOLT-4 2.02 µM | Malme-3M 6.76 µM | NCI-H226 7.21 µM | NCI/ADR-RES 22.9 µM | OVCAR-3 7.21 µM | OVCAR-5 13.2 µM | OVCAR-8 7.76 µM | PC-3 5.78 µM | RPMI-8226 4.48 µM | RXF 393 4.65 µM | SF-268 10.7 µM | SF-295 7.93 µM | SF-539 9.27 µM | SK-MEL-28 39.4 µM | SK-MEL-5 1.59 µM | SK-OV-3 4 µM | SN12C 3.91 µM | SNB-19 13.5 µM | SW-620 12 µM | T47D 5.18 µM | TK-10 11.3 µM | U-251 12.8 µM | UACC-62 4.8 µM | UO-31 19 µM

OC1COC2CC(Nc3ccccn3)OC12 (stereo unspecified)
> 100 µM: HCT-15
inactive: 786-0 > 100 µM | A549 > 100 µM | ACHN > 100 µM | BT-549 > 100 µM | CAKI-1 > 100 µM | CCRF-CEM > 100 µM | COLO 205 > 100 µM | EKVX > 100 µM | HCC 2998 > 100 µM | HCT-116 > 100 µM | HOP-62 > 100 µM | HT-29 > 100 µM | Hs-578T > 100 µM | IGROV-1 > 100 µM | K562 > 100 µM | KM12 > 100 µM | LOX IMVI > 100 µM | M14 > 100 µM | MDA-MB-231 > 100 µM | MDA-MB-435 > 100 µM | MDA-N > 100 µM | MOLT-4 > 100 µM | Malme-3M > 100 µM | NCI-H226 > 100 µM | NCI-H23 > 100 µM | NCI-H460 > 100 µM | NCI-H522 > 100 µM | NCI/ADR-RES 56.9 µM | OVCAR-3 > 100 µM | OVCAR-4 > 100 µM | OVCAR-5 > 100 µM | OVCAR-8 > 100 µM | PC-3 > 100 µM | RPMI-8226 > 100 µM | RXF 393 > 100 µM | SF-268 > 100 µM | SF-295 > 100 µM | SF-539 > 100 µM | SK-MEL-28 > 100 µM | SK-MEL-2 > 100 µM | SK-MEL-5 > 100 µM | SK-OV-3 > 100 µM | SN12C > 100 µM | SNB-19 > 100 µM | SNB-75 > 100 µM | SR > 100 µM | SW-620 > 100 µM | T47D > 100 µM | TK-10 > 100 µM | U-251 > 100 µM | UACC-257 > 100 µM | UACC-62 > 100 µM | UO-31 > 100 µM
